Test results taken from ChEMBL document CHEMBL5154879, “Induction of Genes Implicated in Stress Response and Autophagy by a Novel Quinolin-8-yl-nicotinamide QN523 in Pancreatic Cancer” (J Med Chem, 2022).
Activity calls are given as the source filed them. No cut-off for these calls is given here.

Columns and labels:
[1] = Upregulation of OSGIN1 gene expression in human MIA PaCa-2 cells assessed as fold change in OSGIN1 expression at 1 uM incubated for 24 hrs by Bru-seq analysis relative to control; type: functional
MIA PaCa-2 [2] = assay: Induction of cell cycle arrest in human MIA PaCa-2 cells assessed as accumulation of cells in G2/M phase at 0.1 uM incubated for 48 hrs by RNase/propidium iodide staining based flow cytometry analysis (reference value: 2.71%); type: functional
[3] = Upregulation of SLFN5 gene expression in human MIA PaCa-2 cells assessed as fold change in SLFN5 expression at 1 uM incubated for 24 hrs by Bru-seq analysis relative to control; type: functional
[4] = Upregulation of […] gene expression in human MIA PaCa-2 cells assessed as fold change in […] expression at 1 uM incubated for 24 hrs by Bru-seq analysis relative to control; type: functional
[5] = Upregulation of HSPA5 gene expression in human MIA PaCa-2 cells assessed as fold change in HSPA5 expression at 1 uM incubated for 24 hrs by Bru-seq analysis relative to control; type: functional
MIA PaCa-2 [6] = assay: Induction of apoptosis in human MIA PaCa-2 cells assessed as early apoptotic cells at 0.5 uM incubated for 48 hrs by Annexin V-FITC/PI staining based flow cytometry analysis (reference value: 1.8%); type: functional
MIA PaCa-2 [7] = assay: Induction of cell cycle arrest in human MIA PaCa-2 cells assessed as accumulation of cells at S phase at 0.1 uM incubated for 48 hrs by RNase/propidium iodide staining based flow cytometry analysis (Rvb =26.9 %); type: functional
BXPC-3 = assay: Cytotoxicity against human BXPC-3 cells assessed as inhibition of cell growth incubated for 72 hrs by MTT assay; type: functional, cell-based; settings: BXPC-3, 72 h
[8] = Upregulation of ATF3 gene expression in human MIA PaCa-2 cells assessed as fold change in ATF3 expression at 1 uM incubated for 24 hrs by Bru-seq analysis relative to control; type: functional
MIA PaCa-2 [9] = assay: Induction of apoptosis in human MIA PaCa-2 cells assessed as late apoptotic cells at 0.1 uM incubated for 48 hrs by Annexin V-FITC/PI staining based flow cytometry analysis (reference value: 0.8%); type: functional
[10] = Upregulation of TXNIP gene expression in human MIA PaCa-2 cells assessed as fold change in TXNIP expression at 1 uM incubated for 24 hrs by Bru-seq analysis relative to control; type: functional
[11] = Downregulation of CXXC5 gene expression in human MIA PaCa-2 cells assessed as fold change in CXXC5 expression at 1 uM incubated for 24 hrs by Bru-seq analysis relative to control; type: functional
[12] = Upregulation of ARG2 gene expression in human MIA PaCa-2 cells assessed as fold change in ARG2 expression at 1 uM incubated for 24 hrs by Bru-seq analysis relative to control; type: functional
[13] = Toxicity in NOD/SCID mouse xenografted with human MIA PaCa-2 cells assessed as change in body weight at 30 mg/kg, ip administered five times a week starting from day 44 to 51 post first dose; type: organism-based; settings: in vivo, 1224 h, time 51 day
MIA PaCa-2 [14] = assay: Downregulation of cell cycle gene expression in human MIA PaCa-2 cells; type: functional, cell-based
MIA PaCa-2 [15] = assay: Upregulation of ATF3 gene expression in human MIA PaCa-2 cells incubated for 72 hrs by Western blot analysis; type: functional, cell-based; settings: dose <= 600.0 µM, DDE = dose-dependent effect
MIA PaCa-2 [16] = assay: Induction of cell cycle arrest in human MIA PaCa-2 cells assessed as accumulation of cells at S phase at 0.5 uM incubated for 48 hrs by RNase/propidium iodide staining based flow cytometry analysis (Rvb =26.9 %); type: functional
MIA PaCa-2 [17] = assay: Upregulation of NFkappaB expression in human MIA PaCa-2 cells by gene set enrichment analysis; type: functional, cell-based
MIA PaCa-2 [18] = assay: Upregulation of GDF15 gene expression in human MIA PaCa-2 cells incubated for 72 hrs by Western blot analysis; type: functional, cell-based; settings: dose <= 600.0 µM, DDE = dose-dependent effect
OVCAR-8 = assay: Antiproliferative activity against human OVCAR-8 cells assessed as inhibition of cell growth incubated for 72 hrs by MTT assay; type: functional, cell-based; settings: OVCAR-8, 72 h
MIA PaCa-2 [19] = assay: Upregulation of UPR gene expression in human MIA PaCa-2 cells by gene set enrichment analysis; type: functional, cell-based
MIA PaCa-2 [20] = assay: Upregulation of P53 pathway in human MIA PaCa-2 cells by gene set enrichment analysis; type: functional, cell-based
MIA PaCa-2 [21] = assay: Induction of apoptosis in human MIA PaCa-2 cells assessed as late apoptotic cells at 0.5 uM incubated for 24 hrs by Annexin V-FITC/PI staining based flow cytometry analysis (reference value: 2.04%); type: functional
[22] = Downregulation of FASN gene expression in human MIA PaCa-2 cells assessed as fold change in FASN expression at 1 uM incubated for 24 hrs by Bru-seq analysis relative to control; type: functional
[23] = Downregulation of FGF18 gene expression in human MIA PaCa-2 cells assessed as fold change in FGF18 expression at 1 uM incubated for 24 hrs by Bru-seq analysis relative to control; type: functional
MIA PaCa-2 [24] = assay: Upregulation of hypoxia in human MIA PaCa-2 cells by gene set enrichment analysis; type: functional, cell-based
MIA PaCa-2 [25] = assay: Downregulation of mitotic spindle gene expression in human MIA PaCa-2 cells by gene set enrichment analysis; type: functional, cell-based
[26] = Toxicity in NOD/SCID mouse xenografted with human MIA PaCa- 2 cells assessed as morphological changes in liver at 10 to 20 mg/kg, ip administered five times a week for 44 days by H and E staining based inverted microscopic analysis; type: organism-based; settings: in vivo, 1056 h, dose 10-20 mg/kg, time 44 day
MIA PaCa-2 [27] = assay: Induction of cell cycle arrest in human MIA PaCa-2 cells assessed as accumulation of cells in G0/G1 phase at 0.1 uM incubated for 48 hrs by RNase/propidium iodide staining based flow cytometry analysis (reference value: 70.4%); type: functional
MIA PaCa-2 [28] = assay: Upregulation of MTOR signalling in human MIA PaCa-2 cells by gene set enrichment analysis; type: functional, cell-based
[29] = Downregulation of HMG20B gene expression in human MIA PaCa-2 cells assessed as fold change in HMG20B expression at 1 uM incubated for 24 hrs by Bru-seq analysis relative to control; type: functional
PANC-1 = assay: Inhibition of colony formation in human PANC-1 cells at 1 uM incubated for 10 to 14 days by crystal violet staining based assay; type: functional, cell-based; settings: time 10-14 day
MIA PaCa-2 [30] = assay: Induction of cell cycle arrest in human MIA PaCa-2 cells assessed as accumulation of cells in G2/M phase at 0.5 uM incubated for 48 hrs by RNase/propidium iodide staining based flow cytometry analysis (reference value: 2.71%); type: functional
MIA PaCa-2 [31] = assay: Antitumor activity against human MIA PaCa-2 cells xenografted in NOD/SCID mouse assessed as tumor growth inhibition at 20 mg/kg, ip administered five times a week starting from day 10 to 44 and measured from day 17 relative to control; type: functional; settings: MIA PaCa-2, 816 h, time 34 day, read-out: TGI
MIA PaCa-2 [32] = assay: Downregulation of G2M checkpoint gene expression in human MIA PaCa-2 cells by gene set enrichment analysis; type: functional, cell-based

O=C(Nc1cccc2cccnc12)c1cnccn1
fold change (FC) [1]: 7.8
Activity (MIA PaCa-2 [2]): 8.22%
fold change (FC) [3]: 10.3
fold change (FC) [4]: 12.8
fold change (FC) [5]: 8.8
Activity (MIA PaCa-2 [6]): 2.2%
Activity (MIA PaCa-2 [7]): 29.4%
IC50 (BXPC-3): 3.3 µM
fold change (FC) [8]: 22
Activity (MIA PaCa-2 [9]): 1.5%
fold change (FC) [10]: 6
fold change (FC) [11]: 0.4
fold change (FC) [12]: 12
Activity [13]: Non-Toxic
Activity (MIA PaCa-2 [14]): Active
Activity (MIA PaCa-2 [15]): Dde
Activity (MIA PaCa-2 [16]): 57.3%
Activity (MIA PaCa-2 [17]): Active
Activity (MIA PaCa-2 [18]): Dde
IC50 (OVCAR-8): 0.3 µM
Activity (MIA PaCa-2 [19]): Active
Activity (MIA PaCa-2 [20]): Active
Activity (MIA PaCa-2 [21]): 2.1%
fold change (FC) [22]: 0.41
fold change (FC) [23]: 0.32
Activity (MIA PaCa-2 [24]): Active
Activity (MIA PaCa-2 [25]): Active
Activity [26]: Non-Toxic
Activity (MIA PaCa-2 [27]): 62.4%
Activity (MIA PaCa-2 [28]): Active
fold change (FC) [29]: 0.33
inhibition (PANC-1): Active
Activity (MIA PaCa-2 [30]): 11.5%
inhibition in vivo at 20 mg/kg (MIA PaCa-2 [31]): 80%
Activity (MIA PaCa-2 [32]): Active
